Results from patent US12528818B2, “Compositions and methods for inhibition of RAS” (Leidos Biomedical Research, Inc., priority 2021, dated 2026).
Where two headings read alike, the source gives them in different places.

System: pERK in NCI-H358 cells
Experiment: Cell-based pERK HTRF assay (pERK inhibition in H358 cells)
Details: pERK inhibition IC50, NCI-H358 cells, 30 min incubation, read-out: PERK in H358 cell

IC50 (Homo sapiens, NCI-H358, 0.5 h) [µM] | IC50 [µM] | Structure (SMILES)
< 0.1 |  | C=CC(=O)N1CC[C@@H](N(CC)c2nc(OC[C@@]34CCCN3C[C@H](F)C4)nc3cc(-c4ccc(F)c5sc(N)c(C#N)c45)c(C(F)(F)F)cc23)C1 [Compound 352]
< 0.1 |  | C=CC(=O)N1C[C@@H](F)[C@@H](N(CC)c2nc(OC[C@@]34CCCN3C[C@H](F)C4)nc3c(F)c(-c4ccc(F)c5sc(N)c(C#N)c45)c(Cl)cc23)C1 [Compound 368]
0.1 to 1 |  | C=CC(=O)N1CCC(N(C)c2nc(OC[C@@H]3C[C@@H](F)CN3C)nc3c(F)c(-c4ccc(F)c5sc(N)c(C#N)c45)c(Cl)cc23)[C@H]1C (some centres unmarked) [Compound 449]
< 0.1 |  | C=CC(=O)N1C[C@@H](F)[C@@H](N(C)c2nc(OC[C@@]34CCCN3C[C@H](F)C4)nc3c(F)c(-c4ccc(F)c5sc(N)c(C#N)c45)c(Cl)cc23)C1 [Compound 365]
< 0.1 |  | C=CC(=O)N1CCC(N(C)c2nc(OC[C@@H]3C[C@@H](OC)CN3C)nc3c(F)c(-c4ccc(F)c5sc(N)c(C#N)c45)c(Cl)cc23)[C@H]1C (some centres unmarked) [Compound 450]
0.1 to 1 |  | C=CC(=O)N1CCN(c2nc(OC[C@@H]3CCCN3C)nc3c(F)c(-c4ccc(F)c5sc(N)nc45)c(OC(F)(F)F)cc23)CC1 [Compound 163]
< 0.1 |  | C=CC(=O)N1CCC(N(C)c2nc(OC[C@@H]3C[C@@H](OC)CN3C)nc3c(F)c(-c4ccc(F)c5sc(N)c(C#N)c45)c(C(F)(F)F)cc23)[C@H]1COC (some centres unmarked) [Compound 454]
0.1 to 1 |  | C=CC(=O)N1CCCC(Nc2nc(OC[C@@H]3CCCN3C)nc3c(F)c(-c4ccc(F)c5sc(N)nc45)c(Cl)cc23)C1 (some centres unmarked) [Compound 54]
< 0.1 |  | C=CC(=O)N1CCN(c2nc(OC[C@]34CCCN3C[C@H](F)C4)nc3c(F)c(-c4ccc(F)c5sc(N)nc45)c(C(F)(F)F)cc23)C[C@H]1C [Compound 190]
0.1 to 1 |  | C=CC(=O)N1CCC(N(C)c2nc(OC[C@@H]3CC4(CC4)CN3C)nc3cc(-c4ccc(F)c5sc(N)c(C#N)c45)c(C#N)cc23)[C@H]1COC (some centres unmarked) [Compound 446]
< 0.1 |  | C=CC(=O)N1CCN(c2nc(OC[C@]34CCCN3C[C@H](F)C4)nc3c(F)c(-c4ccc(F)c5sc(N)nc45)c(C(F)(F)F)cc23)[C@@H](C)C1 [Compound 177]
> 1 |  | C=CC(=O)N1CC(Nc2nc(C3CCN(C)CC3)nc3c(F)c(-c4ccc(F)c5sc(N)nc45)c(Cl)cc23)C1 [Compound 60]
 | 0.1 to 1 | C=CC(=O)N1CC[C@@H](N(C)c2nc(OC[C@@]34CCCN3C[C@H](F)C4)nc3c(Cl)c(-c4ccc(F)c5sc(N)nc45)c(C(F)(F)F)cc23)C1 (single isomer, unassigned) [Compound 303]
0.1 to 1 |  | C=CC(=O)N1[C@H](C)CN(c2nc(OC[C@@]34CCCN3C[C@H](F)C4)nc3c(F)c(-c4ccc(F)c5sc(N)c(C#N)c45)c(C(F)(F)F)cc23)C[C@H]1C [Compound 330]
< 0.1 |  | C=CC(=O)N1C[C@H](C)N(c2nc(OC[C@]3(C)CCCN3C)nc3c(F)c(-c4ccc(F)c5sc(N)c(C#N)c45)c(C(F)(F)F)cc23)C[C@H]1C [Compound 447, 4-(4-((2S,5R)-4-acryloyl-2,5-dimethylpiperazin-1-yl)-2-(((S)-1,2-dimethylpyrrolidin-2-yl)methoxy)-8-fluoro-6-(trifluoromethyl)quinazolin-7-yl)-2-amino-7-fluorobenzo[b]thiophene-3-carbonitrile]
< 0.1 |  | C=CC(=O)N1C[C@@H](F)[C@@H](N(C)c2nc(OC[C@@]34CCCN3C[C@H](F)C4)nc3cc(-c4ccc(F)c5sc(N)c(C#N)c45)c(C#N)cc23)C1 [Compound 372]
> 1 |  | C=CC(=O)N1CC(N(c2nc(OC[C@]34CCCN3C[C@H](F)C4)nc3c(F)c(-c4ccc(F)c5sc(N)nc45)c(Cl)cc23)C2CC2)C1 [Compound 210]
> 1 |  | C=CC(=O)N1C[C@@H]2C[C@H]1[C@@H]2N(C)c1nc(OC[C@@]23CCCN2C[C@H](F)C3)nc2c(F)c(-c3ccc(F)c4sc(N)nc34)c(C(F)(F)F)cc12 [Compound 282]
 | > 1 | C=CC(=O)N1CCC[C@@H](N(C)c2nc(OC[C@@]34CCCN3C[C@H](F)C4)nc3c(F)c(-c4ccc(F)c5sc(N)nc45)c(C(F)(F)F)cc23)C1 [Compound 245]
< 0.1 |  | C=CC(=O)N1CCN(c2nc(OC[C@]34CCCN3C[C@H](F)C4)nc3c(F)c(-c4ccc(F)c5sc(N)nc45)c(C(F)(F)F)cc23)C[C@@H]1C [Compound 165]
> 1 |  | C=CC(=O)N1CC[C@@H]2[C@H]1CN2c1nc(OCC23CCCN2CCC3)nc2c(F)c(-c3ccc(F)c4sc(N)nc34)c(-c3ccoc3)cc12 [Compound 121]
> 1 |  | C=CC(=O)N1CC[C@@H](N(C)c2nc(OCC34CCCN3CCC4)nc3c(F)c(-c4c(O)cccc4F)c(C(F)(F)F)cc23)C1 [Compound 227]

IC50 (Homo sapiens, NCI-H358, 0.5 h) [µM] | IC50 [µM] | Structure (SMILES)
< 0.1 |  | C=CC(=O)N1CCN(c2nc(OCC34CCCN3CC(C)(C)C4)nc3c(F)c(-c4ccc(F)c5sc(N)nc45)c(C(F)(F)F)cc23)CC1 (centres unmarked) [Compound 171, 1-(4-(7-(2-amino-7-fluorobenzo[d]thiazol-4-yl)-2-((2,2-dimethyltetrahydro-1H-pyrrolizin-7a(5H)-yl)methoxy)-8-fluoro-6-(trifluoromethyl)quinazolin-4-yl)piperazin-1-yl)prop-2-en-1-one]
< 0.1 |  | C=CC(=O)N1CCC(N(C)c2nc(OC[C@@H]3CCCN3C)nc3c(F)c(-c4ccc(F)c5sc(N)c(C#N)c45)c(Cl)cc23)[C@H]1COC (some centres unmarked) [Compound 416]
0.1 to 1 |  | C=CC(=O)N1CC[C@@H](N(CC)c2nc(OCC34CCCN3CCC4)nc3c(F)c(-c4ccc(F)c5sc(N)nc45)c(C(F)(F)F)cc23)C1 [Compound 249]
> 1 |  | C=CC(=O)N1CCN(c2ncnc3c(F)c(-c4ccc(F)c5sc(N)nc45)c(CC#N)cc23)CC1 [Compound 72]
< 0.1 |  | C=CC(=O)N1C[C@@H](F)[C@@H](N(C)c2nc(OCC34CCCN3CCC4)nc3c(F)c(-c4ccc(F)c5sc(N)c(C#N)c45)c(C(F)(F)F)cc23)C1 [Compound 374]
< 0.1 |  | C=CC(=O)N1C[C@@H](F)[C@@H](N(C)c2nc(OC[C@@]34CCCN3C[C@H](F)C4)nc3c(F)c(-c4ccc(F)c5sc(N)c(C#N)c45)ccc23)C1 [Compound 359]
 | < 0.1 | C=CC(=O)N1CC[C@@H](N(C)c2nc(OC[C@@H]3CC(F)(F)CN3C)nc3c(F)c(-c4ccc(F)c5sc(N)nc45)c(C(F)(F)F)cc23)C1 (atropisomer, axis not shown) [Compound 228]
0.1 to 1 |  | C=C(F)C(=O)N1C[C@H](C)N(c2nc(OC[C@]34CCCN3C[C@H](F)C4)nc3c(F)c(-c4ccc(F)c5sc(N)nc45)c(C(F)(F)F)cc23)C[C@H]1C [Compound 205]
< 0.1 |  | C=CC(=O)N1CC[C@@H](N(C)c2nc(OCC3(CN4CCOCC4)CC3)nc3c(F)c(-c4ccc(F)c5sc(N)nc45)c(C(F)(F)F)cc23)C1 [Compound 287]
< 0.1 |  | C=CC(=O)N1CCC(N(CC)c2nc(OC[C@@H]3CCCN3C)nc3c(F)c(-c4ccc(F)c5sc(N)c(C#N)c45)c(C(F)(F)F)cc23)[C@H]1COC (some centres unmarked) [Compound 438]
< 0.1 |  | C=CC(=O)N1CC[C@@H](N(C)c2nc(OC[C@@]34CCCN3C[C@H](F)C4)nc3c(F)c(-c4ccc(F)c5oc(N)nc45)c(C(F)(F)F)cc23)C1 [Compound 275]
0.1 to 1 |  | C=CC(=O)N1CCC(N(C)c2nc(OC[C@@H]3C[C@@H](OC)CN3C)nc3cc(-c4ccc(F)c5sc(N)c(C#N)c45)c(C#N)cc23)[C@H]1COC (some centres unmarked) [Compound 465]
< 0.1 |  | C=CC(=O)N1CCC(N(C)c2nc(OC[C@@H]3CC4(CC4)CN3C)nc3c(F)c(-c4ccc(F)c5sc(N)c(C#N)c45)ccc23)[C@H]1COC (some centres unmarked) [Compound 433]
> 1 |  | CC#CC(=O)N1CCN(c2nc(OCC34CCCN3CCC4)nc3c(F)c(-c4ccc(F)c5sc(N)nc45)c(Cl)cc23)CC1 [Compound 133]
< 0.1 |  | C=CC(=O)N1CC[C@@H](N(C)c2nc(OC[C@@H]3CC4(CC4)CN3C)nc3c(F)c(-c4ccc(F)c5sc(N)nc45)c(C(F)(F)F)cc23)C1 (atropisomer, axis not shown) [Compound 255]
< 0.1 |  | C=CC(=O)N1C[C@H](C)N(c2nc(OC[C@@H]3CCCN3C)nc3c(F)c(-c4ccc(F)c5sc(N)c(C#N)c45)c(C(F)(F)F)cc23)C[C@H]1C [Compound 363, 4-(4-((2S,5R)-4-acryloyl-2,5-dimethylpiperazin-1-yl)-8-fluoro-2-(((S)-1-methylpyrrolidin-2-yl)methoxy)-6-(trifluoromethyl)quinazolin-7-yl)-2-amino-7-fluorobenzo[b]thiophene-3-carbonitrile]
> 1 |  | C=CC(=O)N1CC(Nc2nc(OCC34CCCN3CCC4)nc3c(F)c(-c4ccc(F)c5sc(N)nc45)c(Cl)cc23)C1 [Compound 49, 1-(3-((7-(2-amino-7-fluorobenzo[d]thiazol-4-yl)-6-chloro-8-fluoro-2-((tetrahydro-1H-pyrrolizin-7a(5H)-yl)methoxy)quinazolin-4-yl)amino)azetidin-1-yl)prop-2-en-1-one]
< 0.1 |  | C=CC(=O)N1CCC(N(C)c2nc(OC[C@@H]3C[C@@H](OC)CN3C)nc3c(F)c(-c4ccc(F)c5sc(N)c(C#N)c45)ccc23)[C@H]1COC (some centres unmarked) [Compound 424]
0.1 to 1 |  | C=CC(=O)N1CCC(N(CC)c2nc(OC[C@@H]3C[C@@H](F)CN3C)nc3cc(-c4ccc(F)c5sc(N)c(C#N)c45)c(C#N)cc23)[C@H]1COC (some centres unmarked) [Compound 471]
> 1 |  | C=CC(=O)N1C[C@@H](N(C)c2nc(OC[C@@]34CCCN3C[C@H](F)C4)nc3c(F)c(-c4ccc(F)c5sc(N)nc45)c(C(F)(F)F)cc23)C(C)(C)C1 [Compound 283]
< 0.1 |  | C=CC(=O)N1CC[C@@H](N(C)c2nc(OC[C@@]34CCCN3C[C@H](F)C4)nc3cc(-c4ccc(F)c5sc(N)c(C#N)c45)c(F)cc23)[C@H]1C [Compound 390, 4-(4-((1-acryloyl-2-methylpyrrolidin-3-yl)(methyl)amino)-6-fluoro-2-(((2R,7aS)-2-fluorotetrahydro-1H-pyrrolizin-7a(5H)-yl)methoxy)quinazolin-7-yl)-2-amino-7-fluorobenzo[b]thiophene-3-carbonitrile]
> 1 |  | C=CC(=O)N1CC[C@@H](N(C)c2nc(OC[C@@]34CCCN3C[C@H](F)C4)nc3c(F)c(-c4ccc(F)c5sc(C(F)F)nc45)c(C(F)(F)F)cc23)C1 [Compound 310]
